This test concerns CD2F1 mice, L1210 leukemia ip, survival T/C. The test is described as follows: NCI In Vivo Anticancer Drug Screen. Data for tumor model L1210 Leukemia (intraperitoneal) in CD2F1 (CDF1) mice. To be noted: endpoint: mean survival time, higher = longer survival. The method in brief:
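Each value reflects a quotient of treated over vehicle control outcomes in mice with a transplanted tumor.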

Where [1] appears, read: dose: 12.5 mg/kg/injection, schedule: Q01DX009 (ip), vehicle: other.
The mark [2] stands for this setting: dose: 25.0 mg/kg/injection, schedule: Q01DX009 (ip), vehicle: other.
[3] abbreviates: dose: 50.0 mg/kg/injection, schedule: Q01DX009 (ip), vehicle: other.
[4] abbreviates: dose: 100.0 mg/kg/injection, schedule: Q01DX009 (ip), vehicle: other.
[5] abbreviates: dose: 200.0 mg/kg/injection, schedule: Q01DX009 (ip), vehicle: other.
Where [6] appears, read: dose: 100.0 mg/kg/injection, schedule: Q01DX001 (ip), vehicle: saline with Tween-80.
Where [7] appears, read: dose: 200.0 mg/kg/injection, schedule: Q01DX001 (ip), vehicle: saline with Tween-80.
The mark [8] stands for this setting: dose: 400.0 mg/kg/injection, schedule: Q01DX001 (ip), vehicle: saline with Tween-80.
Setting [9] is: dose: 100.0 mg/kg/injection, schedule: Q04DX003 (ip), vehicle: saline with Tween-80.
[10] abbreviates: dose: 400.0 mg/kg/injection, schedule: Q04DX003 (ip), vehicle: saline with Tween-80.
Setting [11] is: dose: 50.0 mg/kg/injection, schedule: Q04DX002 (ip), vehicle: saline with Tween-80.
The mark [12] stands for this setting: dose: 100.0 mg/kg/injection, schedule: Q04DX002 (ip), vehicle: saline with Tween-80.
Where [13] appears, read: dose: 200.0 mg/kg/injection, schedule: Q04DX002 (ip), vehicle: saline with Tween-80.
[14] abbreviates: dose: 200.0 mg/kg/injection, schedule: Q04DX003 (ip), vehicle: saline with Tween-80.
[15] abbreviates: dose: 100.0 mg/kg/injection, schedule: Q01DX001 (ip), vehicle: saline.
Setting [16] is: dose: 200.0 mg/kg/injection, schedule: Q01DX001 (ip), vehicle: saline.

Where “and” joins values, the source holds several entries; their conditions need not be identical. Identical values can stand only once. Inconclusive results and toxic doses are left out.

For `O=C(C1CCCCC1)C1CCC2(CCCCC2)CC1`, the T/C under setting [1] was 92 % of control; the T/C under setting [2] was 87 % of control; the T/C under setting [3] is 93 % of control; the T/C under setting [4] is 92 % of control; the T/C under setting [5] is 95 % of control.

As to `CCCc1cccc[n+]1CC(=O)c1ccccc1`, the T/C is, setting by setting: (dose: 6.25 mg/kg/injection, schedule: Q04DX003 (ip), vehicle: saline) 106 % of control; (dose: 12.5 mg/kg/injection, schedule: Q04DX003 (ip), vehicle: saline) 98 % of control; (dose: 25.0 mg/kg/injection, schedule: Q04DX003 (ip), vehicle: saline) 98 % of control.

For the molecule `O=C1NC23C(=O)N(C4CCCCC4)CC2(Cc2ccccc2)c2ccccc2N3C1=O` (stereo not given), the T/C under setting [6] is 86 % of control, the T/C under setting [7] was 92 % of control and the T/C under setting [8] was 86 % of control.

For `O=C1N(Cc2ccccc2)CC2C(c3ccccc3)NNC12O` (stereo not given), the T/C under setting [9] is 89 % of control and the T/C under setting [10] is 101 % of control.

`COc1ccc(OC)c(/C=C(/C#N)C(N)=O)c1`: the T/C by setting is: under setting [11], 104 % of control; under setting [12], 93 % of control; under setting [7], 91 % of control; under setting [13], 93 % of control; under setting [8], 90 % of control.

`CNC(=S)C(=S)NC`: the T/C by setting is: (dose: 6.25 mg/kg/injection, schedule: Q01DX009 (ip), vehicle: saline with Tween-80) 100 % of control; (dose: 12.5 mg/kg/injection, schedule: Q01DX009 (ip), vehicle: saline with Tween-80) 97 % of control; (dose: 25.0 mg/kg/injection, schedule: Q01DX009 (ip), vehicle: saline with Tween-80) 95 % of control; (dose: 50.0 mg/kg/injection, schedule: Q04DX003 (ip), vehicle: saline with Tween-80) 93 % of control.

Turning to `O=C1c2ccccc2C(=O)c2c(O)c3c(c(O)c21)CCC(O)C3` (stereo not given), the T/C is 102 % of control under setting [1]; 107 % of control under setting [2]; 96 % of control under setting [3]; 91 % of control under setting [4]; 93 % of control under setting [5].

With `CCCCOP(=O)(OC)OCCCC`, the T/C runs as follows: under setting [12], 94 % of control; under setting [13], 102 % of control.

In the case of `N#CC(C#N)=Cc1cc2ccccc2c2ccccc12`, the T/C is 109 % of control under setting [9], 97 % of control under setting [14] and 101 % of control under setting [10].

Take `CC(=O)C(CN(C)C)c1ccccc1` (stereo not given): the T/C is 95 % of control (dose: 100.0 mg/kg/injection, schedule: Q04DX003 (ip), vehicle: saline) and 107 % of control (dose: 200.0 mg/kg/injection, schedule: Q04DX003 (ip), vehicle: saline).

With `Cc1cc([N+](=O)[O-])c(S(N)(=O)=O)c([N+](=O)[O-])c1`, the T/C was 98 % of control (dose: 25.0 mg/kg/injection, schedule: Q01DX009 (ip), vehicle: Klucel (hydroxypropylcellulose) (HPC)) and 95 % of control (dose: 50.0 mg/kg/injection, schedule: Q01DX009 (ip), vehicle: Klucel (hydroxypropylcellulose) (HPC)).

Take `O=C(N/C=C\NC(=O)Nc1cccc(Cl)c1)Nc1cccc(Cl)c1`: the T/C was 90 % of control under setting [12]; 90 % of control under setting [13]; 98 % of control (dose: 400.0 mg/kg/injection, schedule: Q04DX002 (ip), vehicle: saline with Tween-80).

Regarding `N=c1ccn2c(n1)OC1C(OC(=O)C34CC5CC(CC(C5)C3)C4)C(COC(=O)C34CC5CC(CC(C5)C3)C4)OC12` (stereo not given), the T/C is 104 % of control (dose: 12.5 mg/kg/injection, schedule: Q01DX005 (ip), vehicle: distilled water + Tween-80); 107 % of control (dose: 25.0 mg/kg/injection, schedule: Q01DX005 (ip), vehicle: distilled water + Tween-80); 121 % of control (dose: 50.0 mg/kg/injection, schedule: Q01DX005 (ip), vehicle: distilled water + Tween-80).

Regarding `COc1cccc2c1C(=O)c1c(O)c3c(c(O)c1C2=O)C[C@@](O)(C(=O)COC(=O)c1cccnc1)C[C@@H]3OC1CC(N)C(O)C(C)O1` (stereo not given in full), the T/C reads like this: (dose: 0.25 mg/kg/injection, schedule: Q01DX009 (ip), vehicle: water) 104 % of control; (dose: 0.4 mg/kg/injection, schedule: Q01DX009 (ip), vehicle: saline with Tween-80) 120 % of control; (dose: 0.5 mg/kg/injection, schedule: Q01DX009 (ip), vehicle: water) 109 % of control; (dose: 1.0 mg/kg/injection, schedule: Q01DX009 (ip), vehicle: water) 122 % of control; (dose: 1.5 mg/kg/injection, schedule: Q01DX009 (ip), vehicle: saline) 168 % of control; (dose: 2.0 mg/kg/injection, schedule: Q01DX009 (ip), vehicle: water) 120 % of control. Also, for the setting “dose: 4.0 mg/kg/injection, schedule: Q01DX009 (ip), vehicle: water”, the T/C was 108 % of control.

Regarding `NCCCN1CCOCC1`, the T/C is, setting by setting: under setting [15], 98 % of control; under setting [16], 101 % of control; (dose: 400.0 mg/kg/injection, schedule: Q01DX001 (ip), vehicle: saline) 95 % of control.

For the molecule `COc1cc(C(=O)C[n+]2ccccc2)ccc1O`, the T/C by setting is: (dose: 50.0 mg/kg/injection, schedule: Q01DX009 (ip), vehicle: saline with Tween-80) 103 % of control; (dose: 100.0 mg/kg/injection, schedule: Q01DX009 (ip), vehicle: saline with Tween-80) 87 % of control; (dose: 200.0 mg/kg/injection, schedule: Q01DX009 (ip), vehicle: saline with Tween-80) 96 % of control.

As for `CN(C)Cc1ccccc1`, the T/C is 104 % of control under setting [6] and 110 % of control under setting [7].

As for `COC(=O)COS(=O)(=O)c1ccc(C)cc1`, the T/C is 95 % of control under setting [6], 96 % of control under setting [7] and 100 % of control under setting [8].

For the molecule `NC(CCCCNCC(CNCCCCC(N)C(=O)O)C(=O)O)C(=O)O` (stereo not given), the T/C (dose: 25.0 mg/kg/injection, schedule: Q04DX002 (ip), vehicle: saline with Tween-80) is 105 % of control; the T/C under setting [11] is 98 % of control; the T/C under setting [12] was 94 % of control.

In the case of `O=C(O)c1ccccc1CCl`, the T/C is, setting by setting: under setting [9], 103 % of control; under setting [14], 108 % of control; under setting [10], 108 % of control.

Take `c1ccc2[nH]c(C3CCCCN3)cc2c1` (stereo not given): the T/C is 101 % of control under setting [15] and 96 % of control under setting [16].

Take `C=CCOCC(O)C[As](=O)(O)c1ccc(OC)cc1` (stereo not given): the T/C by setting is: (dose: 6.25 mg/kg/injection, schedule: Q04DX003 (ip), vehicle: saline with Tween-80) 92 % of control; (dose: 12.5 mg/kg/injection, schedule: Q04DX003 (ip), vehicle: saline with Tween-80) 101 % of control; (dose: 25.0 mg/kg/injection, schedule: Q04DX003 (ip), vehicle: saline with Tween-80) 98 % of control.

As for `S=C=Nc1cccc(Cl)c1`, the T/C by setting is: (dose: 75.0 mg/kg/injection, schedule: Q01DX009 (ip), vehicle: saline with Tween-80) 95 % of control and 100 % of control; (dose: 150.0 mg/kg/injection, schedule: Q01DX009 (ip), vehicle: saline with Tween-80) 100 % of control; (dose: 300.0 mg/kg/injection, schedule: Q01DX009 (ip), vehicle: saline with Tween-80) 86 % of control.

`C[C@]12CCC(=O)C=C1CC[C@H]1[C@@H]3CC[C@](O)(C(=O)CF)[C@@]3(C)C[C@H](O)[C@@]12F`: the T/C was 103 % of control (dose: 50.0 mg/kg/injection, schedule: Q01DX001 (sc), vehicle: saline sonified); 104 % of control (dose: 50.0 mg/kg/injection, schedule: Q04DX003 (sc), vehicle: Klucel (hydroxypropylcellulose) (HPC)); 101 % of control (dose: 100.0 mg/kg/injection, schedule: Q01DX001 (sc), vehicle: saline sonified); 102 % of control (dose: 100.0 mg/kg/injection, schedule: Q04DX003 (sc), vehicle: Klucel (hydroxypropylcellulose) (HPC)); 103 % of control (dose: 200.0 mg/kg/injection, schedule: Q01DX001 (sc), vehicle: saline sonified); 104 % of control (dose: 200.0 mg/kg/injection, schedule: Q04DX003 (sc), vehicle: Klucel (hydroxypropylcellulose) (HPC)).

(Values after PubChem BioAssay AID256 (DTP/NCI, 2004).)
